The record followed here is ChEMBL document CHEMBL2440085, “Identification of novel PARP-1 inhibitors by structure-based virtual screening” (Bioorg Med Chem Lett, 2013).

For orientation: inhibition means the change of the read-out against control, counted positive when it falls. What is called pIC50 is −log10 of the IC50, conventionally taken in molar units.

Molecules are shown by their SMILES. pIC50: −log10 of the molar value. Active and inactive are the calls of the source. The calls are words filed in the database; no cut-off is given here. A value given as a limit tells only on which side of the number the result lay.

In the first test the target is T1, Poly [ADP-ribose] polymerase 1 (Homo sapiens, UniProt P09874). The test is described as follows: Inhibition of PARP-1 (unknown origin) at 1 uM after 60 mins by colorimetric assay relative to control.
T1 sequence (P09874 whole entry): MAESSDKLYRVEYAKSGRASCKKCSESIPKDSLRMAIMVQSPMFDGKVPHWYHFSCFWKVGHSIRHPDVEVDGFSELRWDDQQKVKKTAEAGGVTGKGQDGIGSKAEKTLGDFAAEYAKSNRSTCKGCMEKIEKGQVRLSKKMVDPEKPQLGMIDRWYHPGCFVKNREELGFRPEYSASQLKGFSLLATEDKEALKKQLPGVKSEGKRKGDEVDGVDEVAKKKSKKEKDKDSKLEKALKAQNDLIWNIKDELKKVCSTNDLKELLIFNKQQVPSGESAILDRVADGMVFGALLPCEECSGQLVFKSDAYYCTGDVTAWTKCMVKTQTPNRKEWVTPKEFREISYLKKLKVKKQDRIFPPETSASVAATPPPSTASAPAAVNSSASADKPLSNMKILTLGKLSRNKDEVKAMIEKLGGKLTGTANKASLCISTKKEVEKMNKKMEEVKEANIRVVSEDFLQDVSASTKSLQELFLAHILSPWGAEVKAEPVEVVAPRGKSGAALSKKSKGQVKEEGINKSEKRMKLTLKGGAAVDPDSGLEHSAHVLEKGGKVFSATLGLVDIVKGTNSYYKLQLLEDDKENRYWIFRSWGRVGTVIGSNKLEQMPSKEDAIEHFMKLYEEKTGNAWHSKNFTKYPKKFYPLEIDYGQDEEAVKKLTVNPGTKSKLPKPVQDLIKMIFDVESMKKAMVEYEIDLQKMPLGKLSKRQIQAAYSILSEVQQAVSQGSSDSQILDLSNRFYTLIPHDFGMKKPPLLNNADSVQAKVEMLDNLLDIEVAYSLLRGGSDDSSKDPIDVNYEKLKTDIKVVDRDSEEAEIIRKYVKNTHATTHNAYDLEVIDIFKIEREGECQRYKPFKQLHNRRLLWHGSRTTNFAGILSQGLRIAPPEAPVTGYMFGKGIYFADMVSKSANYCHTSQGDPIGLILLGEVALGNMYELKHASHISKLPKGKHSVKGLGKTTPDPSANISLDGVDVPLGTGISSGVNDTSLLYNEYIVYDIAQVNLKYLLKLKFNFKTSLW
In the case of `O=C1NC(=O)c2cc(NS(=O)(=O)c3cccc4cccnc34)ccc21`, the inhibition entry was “inactive”.

As to `O=C(c1ccccc1)c1c2nc[nH]c(=O)c2c2ccccn12`, the inhibition result was “inactive”.

`O=C1N[C@H]2Cc3ccccc3CN2c2ccccc21` came in with an inhibition of 40%.

Consider `Cc1ccc(C(=O)C2=C3NC(=O)c4ccccc4N3Cc3ccccc32)cc1`, for which the inhibition entry was “inactive”.

For `O=C1Nc2ccc(S(=O)(=O)Nc3ccc(Cl)cn3)c3cccc1c23`, the inhibition entry was “inactive”.

Compound `N#Cc1c(-c2ccccc2)cn2c1[nH]c(=O)c1ccccc12` gave an inhibition of 40%.

`CCCn1c2c(c(=S)[nH]c1=O)CCC2`: the inhibition result was “inactive”.

On to `Cc1ccc(C(=O)CSc2nc3c(c(=O)[nH]2)CCC3)cc1`, for which the inhibition entry is “inactive”.

On to `O=c1[nH]c(NCc2ccncc2)nc2c1CCC2`, for which the inhibition result is “inactive”.

In the case of `Cc1ccc2cc(CCN)c(=O)[nH]c2c1C`, the inhibition result was “inactive”.

`Cc1sc2nc(SCC(=O)N3CCN(CCO)CC3)[nH]c(=O)c2c1C` returned an inhibition of 40%.

In the case of `CC1Oc2ccc(NC(=O)COc3ccc(F)cc3)cc2NC1=O` (stereo not given), the inhibition entry is “inactive”.

`O=C(O)CN1C(=O)c2ccc3c4c(ccc(c24)C1=O)C(=O)N3`: the inhibition entry is “inactive”.

Turning to `Cc1nn2nnnc2[nH]c1=O`, the inhibition entry was “inactive”.

Turning to `O=C(CSc1nc2sc3c(c2c(=O)[nH]1)CCC3)N(CCO)CCO`, the inhibition amounted to 40%.

Take `Cc1cccc(N2CCN(c3nnc(C)c(=O)[nH]3)CC2)c1C`: the inhibition entry was “inactive”.

Regarding `O=C1Nc2ccc(S(=O)(=O)NCc3ccccn3)c3cccc1c23`, the inhibition entry is “inactive”.

Regarding `Cc1cc(OCC(=O)Nc2ccc3c(c2)NC(=O)C(C)O3)ccc1Cl` (stereo not given), the inhibition entry was “inactive”.

In the case of `CCN(CC)c1ccc(/C=N\Nc2nnc(C)c(=O)[nH]2)cc1`, the inhibition result is “inactive”.

For the compound `O=c1[nH]n(-c2ccc([N+](=O)[O-])cc2)c(=O)c2ccccc12`, the inhibition result is “inactive”.

For the compound `CC(C)(C)c1nn2c(SCC(=O)c3ccc(Cl)c(Cl)c3)nnc2[nH]c1=O`, the inhibition entry is “inactive”.

On to `Oc1nc2ccccc2n2nnnc12`, for which the inhibition result is “inactive”.

Consider `CC1Oc2ccc(NC(=O)CNC(=O)c3ccccc3)cc2NC1=O` (stereo not given), for which the inhibition result is “inactive”.

`O=C(CS(=O)(=O)CC(=O)c1ccc2c(c1)NC(=O)CO2)Nc1ccccc1`: the inhibition entry was “inactive”.

On to `O=C(c1ccc(F)cc1)c1c2nc[nH]c(=O)c2c2ccccn12`, for which the inhibition result was “inactive”.

For the compound `O=C1Nc2ccc(S(=O)(=O)NCc3cccnc3)c3cccc1c23`, the inhibition entry is “inactive”.

With `O=C1N[C@@H]2N(Cc3ccccc3C23CCOCC3)c2ccccc21`, the inhibition came to 40%.

A further test has as its target T1, Poly [ADP-ribose] polymerase 1. As to the kind of experiment: Inhibition of PARP-1 (unknown origin) at 10 uM after 60 mins by colorimetric assay relative to control.
Take `O=c1[nH]cnc2sccc12`: the inhibition was less than 20%.

For the compound `Oc1ncnc2ccsc12`, the inhibition is 46%.

The next test shares this target. As to the kind of experiment: Inhibition of PARP-1 (unknown origin) after 60 mins by colorimetric assay.
`O=C1N[C@H]2Cc3ccccc3CN2c2ccccc21` showed a pIC50 of 5.72.

`N#Cc1c(-c2ccccc2)cn2c1[nH]c(=O)c1ccccc12` showed a pIC50 of 5.02.

In the case of `Cc1sc2nc(SCC(=O)N3CCN(CCO)CC3)[nH]c(=O)c2c1C`, the pIC50 is 6.14.

`O=C(CSc1nc2sc3c(c2c(=O)[nH]1)CCC3)N(CCO)CCO` gave a pIC50 of 5.67.

Compound `O=c1[nH]cnc2ccsc12` gave a pIC50 of 4.85.

In turn, `O=C1N[C@@H]2N(Cc3ccccc3C23CCOCC3)c2ccccc21` showed a pIC50 of 5.71.
